Experiment: xn = mol fraction of the nth substance listed

CCCBr + C1CCCCC1
308.15 K, 101 kPa
Conditions | viscosity [mPa·s]
x2 = 0.0957 | 0.4455
x2 = 0.1997 | 0.46
x2 = 0.2991 | 0.4715
x2 = 0.4983 | 0.516
x2 = 0.6052 | 0.5432
x2 = 0.7135 | 0.5889
x2 = 0.801 | 0.6197
x2 = 0.9011 | 0.6872

CCCCCCCCNCCCCCCCC + C1CCCCC1
303.15 K, 101 kPa
Conditions | viscosity [mPa·s]
x2 = 0.1052 | 3.382
x2 = 0.2021 | 3.137
x2 = 0.3028 | 2.95
x2 = 0.4044 | 2.591
x2 = 0.5039 | 2.306
x2 = 0.6016 | 1.976
x2 = 0.7009 | 1.653
x2 = 0.8006 | 1.364
x2 = 0.9216 | 1.055

CC(C)(C)O + C1COCCO1
298.15 K, 101 kPa
Conditions | viscosity [mPa·s]
x2 = 0.0878 | 2.941
x2 = 0.1776 | 2.179
x2 = 0.2717 | 1.773
x2 = 0.3647 | 1.496
x2 = 0.4695 | 1.304
x2 = 0.571 | 1.197
x2 = 0.6659 | 1.134
x2 = 0.7778 | 1.114
x2 = 0.791 | 1.111
x2 = 0.8424 | 1.11
x2 = 0.8786 | 1.118

CC1OC(C)OC(C)O1 (stereo not drawn) + CC1COC(=O)O1
viscosity [mPa·s], 101.3 kPa
Conditions | x1 = 0.091 | x1 = 0.2019 | x1 = 0.3007 | x1 = 0.4055 | x1 = 0.5011 | x1 = 0.6022 | x1 = 0.7006 | x1 = 0.8028 | x1 = 0.9028
293.15 K | 2.641 | 2.499 | 2.364 | 2.215 | 2.07 | 1.91 | 1.75 | 1.577 | 1.402
298.15 K | – | – | – | – | – | – | – | 1.412 | 1.26
303.15 K | 2.161 | 2.027 | 1.907 | 1.779 | 1.661 | 1.531 | 1.402 | 1.268 | 1.134
308.15 K | 1.969 | 1.843 | 1.732 | 1.614 | 1.505 | 1.385 | 1.267 | 1.144 | 1.024

COCCOCCOCCO + CC1COC(=O)O1
298.15 K, 101.33 kPa
Conditions | viscosity [mPa·s]
x1 = 0.0048 | 2.514
x1 = 0.015 | 2.563
x1 = 0.0231 | 2.601
x1 = 0.0338 | 2.645
x1 = 0.0436 | 2.701
x1 = 0.0626 | 2.807
x1 = 0.0855 | 2.896
x1 = 0.1268 | 3.064
x1 = 0.1715 | 3.253
x1 = 0.2173 | 3.462
x1 = 0.2578 | 3.648
x1 = 0.2932 | 3.814
x1 = 0.3343 | 4.013
x1 = 0.3636 | 4.167
x1 = 0.406 | 4.368
x1 = 0.445 | 4.559
x1 = 0.4717 | 4.699
x1 = 0.5024 | 4.844
x1 = 0.5261 | 4.965
x1 = 0.5629 | 5.143
x1 = 0.6084 | 5.347
x1 = 0.6548 | 5.581
x1 = 0.6969 | 5.687
x1 = 0.7326 | 5.831
x1 = 0.7667 | 5.978
x1 = 0.8023 | 6.05
x1 = 0.8213 | 6.09
x1 = 0.84 | 6.121
x1 = 0.8547 | 6.173
x1 = 0.88 | 6.194
x1 = 0.8997 | 6.201
x1 = 0.9173 | 6.208

COCCOCCOCCOC + CC1COC(=O)O1
298.15 K, 101.33 kPa
Conditions | viscosity [mPa·s]
x1 = 0.0049 | 2.492
x1 = 0.0113 | 2.496
x1 = 0.0249 | 2.504
x1 = 0.0352 | 2.516
x1 = 0.0525 | 2.523
x1 = 0.0833 | 2.536
x1 = 0.1358 | 2.56
x1 = 0.1928 | 2.568
x1 = 0.2559 | 2.561
x1 = 0.3083 | 2.543
x1 = 0.3356 | 2.539
x1 = 0.393 | 2.494
x1 = 0.466 | 2.444
x1 = 0.4902 | 2.428
x1 = 0.5272 | 2.402
x1 = 0.5728 | 2.361
x1 = 0.6242 | 2.308
x1 = 0.6786 | 2.254
x1 = 0.7038 | 2.227
x1 = 0.8165 | 2.127
x1 = 0.8598 | 2.088
x1 = 0.8959 | 2.047
x1 = 0.9347 | 2.021
x1 = 0.964 | 1.99

From the CheMixHub viscosity set
